According to PubChem BioAssay (NCI):
Values joined by “and” are separate entries in the source; they are usually repeats but may differ in a detail not shown here. Equal values may be shown once.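 The compound was tested at five concentrations on cells cultured in 96-well plates, with a 48-hour exposure period. GI50 is the concentration that inhibits growth by half. TGI marks complete inhibition of growth.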

Assays:
Assay in all cases: inhibition of tumour cell growth, NCI panel, 48 h
786-0 renal = system: 786-0 renal
BT-549 breast = system: BT-549 breast
EKVX NSCLC = system: EKVX NSCLC
HS 578T breast = system: HS 578T breast
MCF7 breast = system: MCF7 breast
OVCAR-3 ovarian = system: OVCAR-3 ovarian
OVCAR-4 ovarian = system: OVCAR-4 ovarian
SK-MEL-28 melanoma = system: SK-MEL-28 melanoma
SK-MEL-5 melanoma = system: SK-MEL-5 melanoma
U251 CNS = system: U251 CNS

| SMILES | GI50 (786-0 renal) | TGI (786-0 renal) | GI50 (BT-549 breast) | TGI (BT-549 breast) | GI50 (EKVX NSCLC) | TGI (EKVX NSCLC) | GI50 (HS 578T breast) | TGI (HS 578T breast) | GI50 (MCF7 breast) | TGI (MCF7 breast) | GI50 (OVCAR-3 ovarian) | TGI (OVCAR-3 ovarian) | GI50 (OVCAR-4 ovarian) | TGI (OVCAR-4 ovarian) | GI50 (SK-MEL-28 melanoma) | TGI (SK-MEL-28 melanoma) | GI50 (SK-MEL-5 melanoma) | TGI (SK-MEL-5 melanoma) | GI50 (U251 CNS) | TGI (U251 CNS) |
| --- | --- | --- | --- | --- | --- | --- | --- | --- | --- | --- | --- | --- | --- | --- | --- | --- | --- | --- | --- | --- |
| COc1ccc(/C=C\c2cc(OC)c(OC)c(OC)c2)cc1OC(=O)c1cccc(Cn2cc(CCOC(=O)[C@H](N)Cc3cn(C)c4ccccc34)nn2)c1 | 0.111 µM | > 100 µM | < 0.01 µM | 13.3 µM | 0.0538 µM | > 100 µM | < 0.01 µM | > 100 µM | 0.0123 µM | 14 µM | < 0.01 µM | 18.9 µM | 0.208 µM | > 85.4 µM | 2.69 µM | 36.1 µM | < 0.01 µM | 0.0254 µM | < 0.01 µM | > 100 µM |
| Nc1ncnc2c1nc(Cl)n2C1OC2COP(=O)(O)OC2C1O (centres undefined) | – | > 300 µM | – | > 300 µM | – | > 300 µM | – | > 280 µM | – | > 300 µM | – | > 300 µM | – | 204 µM and > 100 µM | – | > 300 µM | – | > 300 µM | – | > 300 µM |
| Cc1cc2nc3c4cc(N)ccc4n(CCN(C)C)c3nc2cc1C | 1.11 µM | 12.6 µM | 2.23 µM | 8.73 µM | 1.59 µM | 12.5 µM | 2.06 µM | 9.81 µM | 0.494 µM | 7.96 µM | 1.39 µM | 6.87 µM | 1.79 µM | 9.64 µM | 2.08 µM | 5.77 µM | 1.48 µM | 2.88 µM | 0.613 µM | 11.1 µM |
| O=C(Nc1cc(Cl)cc(Cl)c1)c1ccc(NC2=C(Cl)C(=O)N(Cc3ccc(Cl)cc3Cl)C2=O)cc1 | 3.41 µM | 35.1 µM | 1.57 µM | 7.22 µM | 21.2 µM | 71.4 µM | 8.12 µM | 54.7 µM | 3.18 µM | 12.9 µM | 26.8 µM | 70.2 µM | 21.8 µM | > 100 µM | 21.4 µM | 75.8 µM | 1.16 µM | 2.65 µM | 16.8 µM | 51.6 µM |
| COC(=O)C1=C(C(=O)ON)C2C=CC1(C(Cc1ccccc1)Nc1ccccc1)O2 (centres undefined) | 1.76 µM | 3.26 µM | 2.07 µM | 4.87 µM | 1.75 µM | 3.51 µM | 25.3 µM | > 100 µM | 2.42 µM | 6.59 µM | 1.72 µM | 3.11 µM | 1.66 µM | 3.12 µM | 1.92 µM | 3.66 µM | 14.1 µM | 27.2 µM | 14.2 µM | 27.2 µM |
| NC(N)=N/N=C\c1cccc(OCc2ccccc2)c1 | 3.54 µM | 12.6 µM | 15 µM | 28.4 µM | 11 µM | 25.4 µM | 9.12 µM | 28.7 µM | 1.77 µM | 3.75 µM | 6.51 µM | 23 µM | 5.93 µM | 27 µM | 1.66 µM | 3.41 µM | 1.66 µM | 3.12 µM | 1.87 µM | 4.12 µM |
| O=C1C(Cl)=C(Nc2cccc(Cl)c2)C(=O)N1Cc1ccccc1Cl | 1.21 µM | 16.3 µM | 4.31 µM | 26 µM | 20.2 µM | 50.9 µM | 9.4 µM | 56.4 µM | 5.18 µM | 21.2 µM | 2.14 µM | 16.1 µM | 12.4 µM | 42.4 µM | 9.95 µM | 34.2 µM | 3.37 µM | 14.3 µM | 2.95 µM | 11.3 µM |
| CCCc1cc2c(=O)c(C(=O)OC)c[nH]c2cc1N(CC)CC | 19.6 µM | 39.8 µM | 39.8 µM | > 100 µM | 16.9 µM | 42.7 µM | 19.6 µM | 48.1 µM | 73.6 µM | > 100 µM | 16.4 µM | 38.3 µM | 22.4 µM | 74.5 µM | 81.7 µM | > 100 µM | 31.9 µM | > 100 µM | 18.2 µM | 39.8 µM |
| COc1ccc(/C=C/C(=O)c2ccc(SC)cc2)cc1OC | 12.5 µM | 26.6 µM | 2.86 µM | 6.66 µM | 19.1 µM | 35.9 µM | 16.6 µM | 99.3 µM | > 100 µM | > 100 µM | 2.12 µM | 6.47 µM | 40.5 µM | > 100 µM | 18.2 µM | 39.8 µM | 14.5 µM | 31.7 µM | 3.53 µM | 13.8 µM |
| Nc1c(Br)cc(Br)c2c1[nH]c(=O)c1ccccc12 | 2.72 µM | 7.83 µM | 7.05 µM | 41 µM | 1.36 µM | 11.1 µM | 3.07 µM | 30 µM | 0.577 µM | > 100 µM | 11.5 µM | 43.4 µM | 1.34 µM | 3.43 µM | > 45.9 µM | > 100 µM | 34 µM | > 100 µM | 5.08 µM | 26.7 µM |
| CC[C@H](Nc1nc(NCc2cnc(C)cc2C)c2ncn(C(C)C)c2n1)[C@@H](C)O | 0.361 µM | > 100 µM | 0.226 µM | 0.8 µM | 0.319 µM | 2.02 µM | 0.281 µM | 0.956 µM | 0.284 µM | 7.23 µM | 0.355 µM | > 24.1 µM | 0.631 µM | 11.5 µM | 0.374 µM | 6.8 µM | 0.219 µM | 0.498 µM | 0.333 µM | > 100 µM |
| CC(C)(C)c1nn(-c2ccccc2)c2c1C(=O)CSC(c1ccccc1Cl)N2 (centres undefined) | 3.32 µM | 15.1 µM | 2.91 µM | 12.9 µM | 3.71 µM | 26.1 µM | 1.26 µM | 7.22 µM | 1.03 µM | 13.5 µM | 1.37 µM | 6.37 µM | 8.48 µM | 21.9 µM | 5.18 µM | 22.5 µM | 0.966 µM | 11 µM | 2.41 µM | 15.5 µM |
| COc1cc2cc(Oc3ccc(NC(=O)Nc4cccc(C(F)(F)F)c4)cc3)c(C)nc2cc1OC | 1.74 µM | 9.24 µM | 1.43 µM | 6.18 µM | 1.48 µM | 6.46 µM | 1.44 µM | 4.22 µM | 1.34 µM | 5.43 µM | 2.04 µM | 8.07 µM | 2.3 µM | 9.7 µM | 1.97 µM | 8.37 µM | 1.08 µM | 2.66 µM | 1.56 µM | 5.61 µM |
| O=c1c2ccccc2n(C[C@H]2CO2)c2ccccc12 | 2.75 µM | 8.17 µM | 1.91 µM | 6.08 µM | 2.56 µM | 6.44 µM | 2.05 µM | 5.89 µM | 0.39 µM | 2.98 µM | 2.31 µM | 7.19 µM | 2.4 µM | 7.89 µM | 2.4 µM | 5.76 µM | 1.52 µM | 2.9 µM | 1.82 µM | 7.3 µM |
| O=c1ccn(C2OC(CO/N=C/c3ccc(O)c(O)c3O)C(O)C2O)c(=O)[nH]1 (centres undefined) | > 100 µM | > 100 µM | 68.4 µM | > 100 µM | 33.9 µM | > 100 µM | 22.8 µM | 59.7 µM | 18.8 µM | 37.6 µM | 13.6 µM | 27.7 µM | 18.9 µM | 37.8 µM | > 100 µM | > 100 µM | 19.4 µM | 33.5 µM | 16.8 µM | 30.4 µM |
| C/C(=N/Nc1nc2ccccc2n1C)c1ccccn1 | 0.0638 µM | 10.6 µM | 0.223 µM | 25.5 µM | 0.0418 µM | 13.5 µM | 0.287 µM | 25.6 µM | 0.0276 µM | 16.1 µM | < 0.0153 µM | 14.1 µM | 0.0292 µM | 11.8 µM | 0.256 µM | 29.1 µM | 0.162 µM | 3.96 µM | 0.115 µM | 19.7 µM |
| COC1CC2CCC(C)C(O)(O2)C(=O)C(=O)N2CCCCC2C(=O)OC(C(C)CC2CCC(O)C(OC)C2)CC(=O)C(C)C=C(C)C(O)C(OC)C(=O)C(C)CC(C)/C=C/C=C/C=C1C (centres undefined) | 5.48 µM | 17.3 µM | 0.00609 µM | 11 µM | < 0.005 µM | 13.7 µM | 0.00742 µM | 24.4 µM | < 0.005 µM | 14.6 µM | 4.49 µM | 10.9 µM | < 0.005 µM | 10.5 µM | 3.23 µM | 11.2 µM | – | 9.24 µM | 0.0523 µM | 10 µM |
| Ic1ccccc1-c1ccccc1 | > 100 µM | > 100 µM | > 100 µM | > 100 µM | > 100 µM | > 100 µM | > 100 µM | > 100 µM | > 100 µM | > 100 µM | > 100 µM | > 100 µM | > 100 µM | > 100 µM | > 100 µM | > 100 µM | > 100 µM | > 100 µM | > 100 µM | > 100 µM |
| CC(C)(O)CS(=O)(=O)Nc1ccc2c(c1)CCN(C(=O)COc1cccnc1)C2 | > 100 µM | > 100 µM | 2.33 µM | > 100 µM | > 100 µM | > 100 µM | > 100 µM | > 100 µM | 5.1 µM | > 100 µM | > 100 µM | > 100 µM | > 100 µM | > 100 µM | > 100 µM | > 100 µM | > 100 µM | > 100 µM | > 62.7 µM | > 100 µM |
